Data on 13 compounds can be found in patent US9688661B2, “Substituted pyrroles active as kinases inhibitors” (NERVIANO MEDICAL SCIENCES S.R.L., priority 2012, dated 2017).

The test system of experiment [1] is JAK2 independent human chronic myelogenous leukaemia cell line K562. Description: Cell proliferation assay, K562. Type of experiment: cell-based. The conditions noted are these: K562 cells, 72 hours, CellTiter-Glo, read-out: IC50 K-562. For orientation: Cellular ATP, detected with luciferase, serves as a proxy for viable cell number.
In another experiment the target is JAK2 kinase domain (Homo sapiens (Human), UniProt O60674). Description: Biochemical assay for inhibitors of JAK kinase activity, JAK2. Particulars: JAK2 kinase domain 1 nM, 60 μM ATP. As to the method:
(§1) Specific JAK2, JAK1 or JAK3 peptide substrates are trans-phosphorylated by JAK kinases in the presence of ATP traced with 33P-γ-ATP. At the end of the phosphorylation reaction, the unreacted ATP, cold and radioactive, is captured by an excess of dowex ion exchange resin that eventually settles by gravity to the bottom of the reaction plate. The supernatant is subsequently withdrawn and transferred into a counting plate that is then evaluated by β-counting.
(§2) 500 g of wet resin (SIGMA, custom prepared resin DOWEX 1×8 200-400 mesh, 2.5 Kg) are weighed out and diluted 2 to 1 in 150 mM sodium formate, pH 3.00. The resin is allowed to settle down overnight and then the supernatant is discarded. After three washes as above over a couple of days, the resin is allowed to settle and two volumes (with respect to the resin volume) of 150 mM sodium formate buffer are added.
(§3) Kinase buffer was composed of 50 mM HEPES pH 7.5 containing 10 mM MgCl2, 2.5 mM DTT, 10 μM Na3VO4 and 0.2 mg/mL BSA.
(§4) The peptidic substrate was purchased from American Peptide Company (Sunnyvale, Calif.).
(§5) Data are analyzed by Symix Assay Explorer software (Symix Technologies Inc.) that provides sigmoidal fitting algorithm of the 8 points dilutions curves for IC50 determination.

For the next experiment, the target named is TYK2 kinase domain (Homo sapiens (Human), UniProt P29597). The experiment can be described thus: Biochemical assay for inhibitors of JAK kinase activity, TYK2. The conditions noted are these: TYK2 kinase domain 3 nM, 31 μM ATP. As to the method:
as §1, §2, §3, §4, §5

For experiment [2], the system named is IL-2 dependent human T lymphoma cell line DERL-7. The experiment can be described thus: Cell proliferation assay, DERL-7. The conditions noted are these: DERL7; DERL-7 cells, 20 ng/ml human IL-2, 72 hours, CellTiter-Glo. The experiment is classed as cell-based. The protocol: the JAK2 dependent human megakaryoblastic leukemia cell line SET-2 (DSMZ, Braunschweig GERMANY), and JAK2 independent human chronic myelogenous leukaemia cell line K562 (ECACC, Wiltshire, UK) were cultured in RPMI-1640 medium-Glutamax (Gibco BRL, Gaithesburg, Md., USA), supplemented with 10% fetal bovine serum (FBS) at 37° C. and 5% CO2. The IL-2 dependent human T lymphoma cell line DERL-7 (DSMZ, Braunschweig GERMANY) was used to test the activity of compounds in cells on JAK1/JAK3 kinases activated by IL-2. The DERL-7 cell lines were cultured in RPMI-1640 medium-Glutamax (Gibco BRL, Gaithesburg, Md., USA), supplemented with 20% FBS and 20 ng/ml of human IL-2 (Sigma-Aldrich, St. Louis, Mo., USA).
Approximately 5×10^3 cells were plated into 384 microtiter plate wells in 50 μL of growth media with different concentrations of inhibitors. The cells were incubated at 37° C. and 5% CO2 for 72 hours, than the plates were processed using CellTiter-Glo assay (Promega, Madison, Wis., USA) following the manufacturer's instruction. Briefly 25 μL/well reagent solution are added to each wells and after 5 minutes shacking micro-plates are read by Envision luminometer (PerkinElmer, Waltham, Mass., USA).
as §5

In another experiment the target is JAK1 kinase domain (Homo sapiens (Human), UniProt P23458). The experiment can be described thus: Biochemical assay for inhibitors of JAK kinase activity, JAK1. Particulars: preactivated JAK1 kinase domain 2.5 nM, 100 μM ATP. The protocol:
as §1, §2, §3
Assays were performed with the JAK1 kinase domain (residues 861-1152 of the 1154 amino acid long full-length sequence, accession number P23458 of UniProtKB/Swiss-Prot database).
The JAK1 kinase domain was preactivated with ATP for 1 h at 28° C. in order to obtain a linear kinetic.
as §4, §5

Experiment [3] deals with JAK2 dependent human megakaryoblastic leukemia cell line SET-2. Description: Cell proliferation assay, SET-2. Type of experiment: cell-based. Particulars: SET-2 cells, 72 hours, CellTiter-Glo.

Bounds are passed on as bounds.

Sequence of JAK1 kinase domain (P23458 861-1152): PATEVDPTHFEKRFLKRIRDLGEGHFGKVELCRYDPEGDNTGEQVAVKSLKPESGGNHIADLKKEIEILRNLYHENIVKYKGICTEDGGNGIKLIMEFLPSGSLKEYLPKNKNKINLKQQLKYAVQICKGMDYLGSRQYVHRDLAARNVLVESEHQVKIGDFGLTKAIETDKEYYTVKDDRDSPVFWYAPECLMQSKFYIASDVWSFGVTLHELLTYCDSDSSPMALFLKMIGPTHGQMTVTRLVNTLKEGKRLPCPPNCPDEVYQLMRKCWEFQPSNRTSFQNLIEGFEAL
Sequence of TYK2 kinase domain (P29597 833-1187): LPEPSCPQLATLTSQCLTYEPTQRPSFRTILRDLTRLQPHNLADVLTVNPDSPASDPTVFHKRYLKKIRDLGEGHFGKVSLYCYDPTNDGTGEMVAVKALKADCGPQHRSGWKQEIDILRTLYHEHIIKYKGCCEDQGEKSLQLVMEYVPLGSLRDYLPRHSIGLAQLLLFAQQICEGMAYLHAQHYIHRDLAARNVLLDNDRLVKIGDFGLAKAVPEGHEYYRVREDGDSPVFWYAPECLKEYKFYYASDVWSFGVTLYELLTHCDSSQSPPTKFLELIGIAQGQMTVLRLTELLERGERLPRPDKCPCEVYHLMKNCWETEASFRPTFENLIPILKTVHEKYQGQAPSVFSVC
Sequence of JAK2 kinase domain (O60674 849-1124): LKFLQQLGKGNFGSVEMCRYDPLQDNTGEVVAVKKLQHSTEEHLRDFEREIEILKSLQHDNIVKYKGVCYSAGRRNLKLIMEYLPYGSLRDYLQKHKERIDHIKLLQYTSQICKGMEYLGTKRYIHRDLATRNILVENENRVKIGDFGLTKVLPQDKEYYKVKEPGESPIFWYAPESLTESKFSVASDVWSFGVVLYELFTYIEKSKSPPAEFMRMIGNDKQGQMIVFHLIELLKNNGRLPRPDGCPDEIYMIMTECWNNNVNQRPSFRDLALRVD

In the case of `CCc1ccc(Cl)cc1-c1[nH]c(-c2ncnc3[nH]ccc23)cc1C(N)=O` [compd 199, 2-(5-Chloro-2-ethylphenyl)-5-(7H-pyrrolo[2,3-d]pyrimidin-4-yl)-1H-pyrrole-3-carboxamide], the IC50 was more than 10000 nM in experiment [1]; 1 nM on JAK2 kinase domain; 3 nM at TYK2 kinase domain; 194 nM in experiment [2]; 7 nM against JAK1 kinase domain; 100 nM in experiment [3].

On to `CCc1ccc(C(F)(F)F)cc1-c1cc(-c2ncnc3[nH]ccc23)[nH]c1C(N)=O` [compd 125, 3-[2-Ethyl-5-(trifluoromethyl)phenyl]-5-(7H-pyrrolo[2,3-d]pyrimidin-4-yl)-1H-pyrrole-2-carboxamide], for which the IC50 in experiment [1] is more than 10000 nM; at JAK2 kinase domain, 6 nM; against TYK2 kinase domain it was 32 nM; in experiment [2] it was 1080 nM; against JAK1 kinase domain, 19 nM; in experiment [3], 300 nM.

Turning to `CCc1ccc(C(F)(F)F)cc1-c1[nH]c(-c2ncnc3[nH]ccc23)cc1C(=O)NC` [compd 323, 2-[2-Ethyl-5-(trifluoromethyl)phenyl]-N-methyl-5-(7H-pyrrolo[2,3-d]pyrimidin-4-yl)-1H-pyrrole-3-carboxamide], the IC50 in experiment [1] is more than 10000 nM; at JAK2 kinase domain, 3 nM; against TYK2 kinase domain, 22 nM; in experiment [2], 510 nM; at JAK1 kinase domain, 6 nM; in experiment [3], 220 nM.

On to `NC(=O)c1cc(-c2ncnc3[nH]ccc23)cn1-c1cc(C(F)(F)F)ccc1Cl` [compd 244, 1-[2-Chloro-5-(trifluoromethyl)phenyl]-4-(7H-pyrrolo[2,3-d]pyrimidin-4-yl)-1H-pyrrole-2-carboxamide], for which the IC50 in experiment [1] is 7230 nM; on JAK2 kinase domain, 1 nM; on TYK2 kinase domain, 3 nM; in experiment [2], 146 nM; against JAK1 kinase domain it was 4 nM; in experiment [3], 60 nM.

Take `Cc1ccc(Cl)cc1-n1cc(-c2ncnc3c2CCN3)cc1C(N)=O` [compd 234, 1-(5-Chloro-2-methylphenyl)-4-(6,7-dihydro-5H-pyrrolo[2,3-d]pyrimidin-4-yl)-1H-pyrrole-2-carboxamide]: the IC50 in experiment [1] was more than 10000 nM; against JAK2 kinase domain it was 6 nM; on TYK2 kinase domain it was 8 nM; in experiment [2], 208 nM; against JAK1 kinase domain, 8 nM; in experiment [3] it was 260 nM.

With `Cc1ccc(Cl)cc1-c1cn(-c2ncnc3[nH]ccc23)cc1C(N)=O` [compd 270, 4-(5-Chloro-2-methylphenyl)-1-(7H-pyrrolo[2,3-d]pyrimidin-4-yl)-1H-pyrrole-3-carboxamide], the IC50 in experiment [1] was 1890 nM; against JAK2 kinase domain, 17 nM; against TYK2 kinase domain, 43 nM; in experiment [2] it was 1790 nM; against JAK1 kinase domain it was 85 nM; in experiment [3], 550 nM.

As to `CCc1ccc(Cl)cc1-c1[nH]c(-c2cc(NC)ncn2)cc1C(N)=O` [compd 198, 2-(5-Chloro-2-ethylphenyl)-5-[6-(methylamino)pyrimidin-4-yl]-1H-pyrrole-3-carboxamide], the IC50 in experiment [1] is more than 10000 nM; against JAK2 kinase domain, 2 nM; on TYK2 kinase domain, 23 nM; in experiment [2], 170 nM; on JAK1 kinase domain, 8 nM; in experiment [3], 190 nM.

As for `CCc1ccc(C(F)(F)F)cc1-c1[nH]c(-c2ncnc3[nH]ccc23)cc1C(N)=O` [compd 220, 2-[2-Ethyl-5-(trifluoromethyl)phenyl]-5-(7H-pyrrolo[2,3-d]pyrimidin-4-yl)-1H-pyrrole-3-carboxamide], the IC50 in experiment [1] turned out to be 6870 nM; against JAK2 kinase domain, 2 nM; on TYK2 kinase domain, 20 nM; in experiment [2], 591 nM; on JAK1 kinase domain, 19 nM; in experiment [3], 150 nM.

For `CCc1ccc(Cl)cc1-c1cc(-c2ncnc3[nH]ccc23)[nH]c1C(=O)NC` [compd 130, 3-(5-Chloro-2-ethylphenyl)-N-methyl-5-(7H-pyrrolo[2,3-d]pyrimidin-4-yl)-1H-pyrrole-2-carboxamide], the IC50 in experiment [1] was more than 10000 nM; against JAK2 kinase domain, 3 nM; at TYK2 kinase domain it was 7 nM; in experiment [2] it was 1600 nM; at JAK1 kinase domain it was 11 nM; in experiment [3], 400 nM.

Turning to `CCc1ccc(Cl)cc1-n1cc(-c2ncnc3c2CCN3)cc1C(N)=O` [compd 241, 1-(5-Chloro-2-ethylphenyl)-4-(6,7-dihydro-5H-pyrrolo[2,3-d]pyrimidin-4-yl)-1H-pyrrole-2-carboxamide], the IC50 in experiment [1] is more than 10000 nM; at JAK2 kinase domain, 5 nM; at TYK2 kinase domain, 16 nM; in experiment [2] it was 1300 nM; on JAK1 kinase domain, 8 nM; in experiment [3], 310 nM.

Turning to `CCc1ccc(Cl)cc1-c1cc(-c2ncnc3[nH]ccc23)[nH]c1C(N)=O` [compd 124, 3-(5-Chloro-2-ethylphenyl)-5-(7H-pyrrolo[2,3-d]pyrimidin-4-yl)-1H-pyrrole-2-carboxamide], the IC50 worked out at 9660 nM in experiment [1]; 4 nM on JAK2 kinase domain; 9 nM against TYK2 kinase domain; 1070 nM in experiment [2]; 18 nM on JAK1 kinase domain; 330 nM in experiment [3].

`CCc1ccc(Cl)cc1-c1[nH]c(-c2cc(N)ncn2)cc1C(N)=O` [compd 197, 5-(6-Aminopyrimidin-4-yl)-2-(5-chloro-2-ethylphenyl)-1H-pyrrole-3-carboxamide]: the IC50 in experiment [1] was more than 10000 nM; on JAK2 kinase domain, 1 nM; against TYK2 kinase domain, 10 nM; in experiment [2] it was 257 nM; at JAK1 kinase domain, 8 nM; in experiment [3], 150 nM.

Take `CCc1ccc(Cl)cc1-c1[nH]c(-c2cc(NC)ncn2)cc1C(=O)NC` [compd 302, 2-(5-Chloro-2-ethylphenyl)-N-methyl-5-[6-(methylamino)pyrimidin-4-yl]-1H-pyrrole-3-carboxamide]: the IC50 in experiment [1] turned out to be 6610 nM; at JAK2 kinase domain, 1 nM; against TYK2 kinase domain, 10 nM; in experiment [2], 469 nM; against JAK1 kinase domain, 1 nM; in experiment [3] it was 130 nM.

By IC50 is commonly meant the midpoint of a concentration-inhibition curve.
